Measurements taken from the NIST ThermoML archive (doi:10.1021/je049910c).
Where “and” joins values, the source holds several entries; their conditions need not be identical. Equal values may be shown once.

What was measured:
[1] = Crystal; DTA
[2] = Molar enthalpy of transition or fusion; conditions: Crystal; DSC
[3] = molar heat capacity at constant pressure; conditions: 101.33 kPa, Liquid

[Br-].[Br-].[Br-].[Tb+3] [terbium tribromide]
Conditions | Molar enthalpy of transition or fusion [kcal/mol] | Normal melting temperature [°C]
[1] | – | 830
[2] | 8.94 | –

[3]
Conditions | molar heat capacity at constant pressure
305 K | 95.25 J/K/mol
310 K | 96.04 J/K/mol
315 K | 96.89 J/K/mol
320 K | 96.99 J/K/mol
325 K | 97.03 J/K/mol
330 K | 96.84 J/K/mol
335 K | 97.05 J/K/mol
340 K | 97.06 J/K/mol
345 K | 98.47 J/K/mol
350 K | 98.03 J/K/mol
354 K | 96.27 J/K/mol
359 K | 96.56 J/K/mol
364 K | 95.16 J/K/mol
369 K | 95.49 J/K/mol
374 K | 95.66 J/K/mol
379 K | 94.73 J/K/mol
384 K | 96.58 J/K/mol
389 K | 94.78 J/K/mol
394 K | 96.69 J/K/mol
399 K | 97.48 J/K/mol
404 K | 97.16 J/K/mol
409 K | 97.43 J/K/mol
414 K | 96.37 J/K/mol
419 K | 97.26 J/K/mol
424 K | 96.24 J/K/mol
429 K | 97.6 J/K/mol
434 K | 98.83 J/K/mol
439 K | 98.92 J/K/mol
444 K | 98.73 J/K/mol
449 K | 100.77 J/K/mol
454 K | 101.24 J/K/mol
459 K | 102.68 J/K/mol
464 K | 101.53 J/K/mol
469 K | 101.69 J/K/mol
474 K | 101.67 J/K/mol
479 K | 101.42 J/K/mol
484 K | 102.61 J/K/mol
489 K | 102.5 J/K/mol
494 K | 101.69 J/K/mol
499 K | 102.17 J/K/mol
504 K | 102.99 J/K/mol
509 K | 102.18 J/K/mol
514 K | 100.27 J/K/mol
519 K | 96.88 J/K/mol
524 K | 98.84 J/K/mol
529 K | 97.84 J/K/mol
534 K | 99.15 J/K/mol
539 K | 97.79 J/K/mol
543 K | 97.7 J/K/mol
548 K | 97.62 J/K/mol
553 K | 98.93 J/K/mol
558 K | 98.58 J/K/mol
568 K | 98.34 J/K/mol
573 K | 98.95 J/K/mol
578 K | 98.65 J/K/mol
583 K | 99.14 J/K/mol
588 K | 98.88 J/K/mol
593 K | 100.12 J/K/mol
598 K | 98.39 J/K/mol
603 K | 99.23 J/K/mol
608 K | 100.21 J/K/mol
613 K | 99.21 J/K/mol
618 K | 100.47 J/K/mol
623 K | 100.62 J/K/mol
628 K | 99.41 J/K/mol
633 K | 99.03 J/K/mol
638 K | 100.94 J/K/mol
643 K | 100.9 J/K/mol
648 K | 106.81 J/K/mol
653 K | 99.85 J/K/mol and 102.18 J/K/mol
658 K | 101.21 J/K/mol
663 K | 102.1 J/K/mol
668 K | 99.19 J/K/mol
673 K | 98.9 J/K/mol
678 K | 101.61 J/K/mol
683 K | 98.15 J/K/mol
688 K | 99.94 J/K/mol
693 K | 98.07 J/K/mol
698 K | 97.98 J/K/mol
703 K | 96.7 J/K/mol
708 K | 97.79 J/K/mol
713 K | 99.85 J/K/mol
717 K | 99.17 J/K/mol
722 K | 99.02 J/K/mol
727 K | 99.08 J/K/mol
732 K | 99.98 J/K/mol
737 K | 99.41 J/K/mol
742 K | 101.93 J/K/mol
747 K | 100.1 J/K/mol
752 K | 104.88 J/K/mol
757 K | 100.82 J/K/mol
762 K | 101 J/K/mol
767 K | 101.85 J/K/mol
772 K | 102.41 J/K/mol
777 K | 103.2 J/K/mol
782 K | 102.71 J/K/mol
787 K | 101.9 J/K/mol
792 K | 101.02 J/K/mol
797 K | 101.52 J/K/mol
802 K | 101.51 J/K/mol
807 K | 99.68 J/K/mol
812 K | 103.05 J/K/mol
817 K | 103.73 J/K/mol
822 K | 102.94 J/K/mol
827 K | 103.83 J/K/mol
832 K | 99.83 J/K/mol
837 K | 98.83 J/K/mol
842 K | 101.98 J/K/mol
847 K | 103.78 J/K/mol
852 K | 103.32 J/K/mol
857 K | 99.15 J/K/mol
862 K | 102.98 J/K/mol
867 K | 101.94 J/K/mol
872 K | 105.24 J/K/mol
877 K | 101.33 J/K/mol
882 K | 103.27 J/K/mol
887 K | 97.19 J/K/mol
892 K | 97.82 J/K/mol
897 K | 98.26 J/K/mol
902 K | 101.94 J/K/mol
907 K | 97.88 J/K/mol
911 K | 97.43 J/K/mol
916 K | 100.85 J/K/mol
921 K | 97.21 J/K/mol
926 K | 100.73 J/K/mol
931 K | 95.04 J/K/mol
936 K | 99.59 J/K/mol
941 K | 98.67 J/K/mol
946 K | 99.44 J/K/mol
951 K | 102.23 J/K/mol
956 K | 103.73 J/K/mol
961 K | 99.7 J/K/mol
966 K | 98.27 J/K/mol
971 K | 101.79 J/K/mol
976 K | 102.55 J/K/mol
981 K | 97.92 J/K/mol
986 K | 104.37 J/K/mol
991 K | 100.42 J/K/mol
996 K | 107.17 J/K/mol
1001 K | 105.67 J/K/mol
1006 K | 110.34 J/K/mol
1011 K | 102.11 J/K/mol
1016 K | 100.99 J/K/mol
1021 K | 106.91 J/K/mol
1026 K | 105.87 J/K/mol
1031 K | 112.44 J/K/mol
1036 K | 99.98 J/K/mol
1041 K | 101.71 J/K/mol
1046 K | 101.91 J/K/mol
1051 K | 106.32 J/K/mol
1056 K | 110.86 J/K/mol
1061 K | 111.7 J/K/mol
